The source of these data is patent US11622970B2, “BCL-2 inhibitors and their use as pharmaceuticals” (PRELUDE THERAPEUTICS INCORPORATED, priority 2020, dated 2023).

Bounds are passed on as bounds.

BCL-2 recombinant protein, sequence (P10415 whole entry): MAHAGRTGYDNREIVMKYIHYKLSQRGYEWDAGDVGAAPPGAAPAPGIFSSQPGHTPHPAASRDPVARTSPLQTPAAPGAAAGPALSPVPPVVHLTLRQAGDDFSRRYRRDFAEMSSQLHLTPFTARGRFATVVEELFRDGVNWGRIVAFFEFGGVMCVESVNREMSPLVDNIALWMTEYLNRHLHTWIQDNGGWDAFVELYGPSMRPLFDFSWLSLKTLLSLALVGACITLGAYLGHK

The first test concerns the target BCL-2 recombinant protein (Homo sapiens, UniProt P10415). The test can be described thus: Cell free Bcl-2:Bak affinity assay (Bcl-2 Bak), HTRF competition of FAM-Bak peptide. It counts as binding. As to conditions: 1 μM compound, 4 nM BCL-2 recombinant protein, 100 nM FAM-Bak, read-out: potency (% inhibition at 1 μM). Here is the method:
Biological Assays: Cell Free Bcl-2:Bak Affinity Assay (Bcl-2 Bak)
The assay is based on the competition of fluorescently labeled peptide binding to BCL-2 and the binding is monitored by HTRF signals between anti-GST-Tb and FAM-peptide using GST-Tag BCL proteins. Testing compounds were dissolved in DMSO at 10 mM and tested in 10-concentration IC50 mode. The compounds of interest in DMSO were added in 3-fold serial dilution to each well containing 4 nM of BCL-2 recombinant protein, 20 mM K Phosphate, pH 7.5, 50 mM NaCl, 1 mM EDTA, 0.005% Triton X-100, by using acoustic technology (Labcyte echo 550), After 10 minutes incubation at room temperature, 100 nM of FAM-Bak was added and incubated for another 10 minutes before addition of Anti-GST-Tb. The plate was then sealed and further incubated at room temperature for 60 minutes in the dark before reading. Percentage of inhibition was calculated by % inhibition=100×(FDMSO−F)/(FDMSO−FPC), in which FDMSO is DMSO control and FPC is a positive control. IC50 values were determined from dose-response curve by fitting the percent inhibition against compound concentration using GraphPad Prism software.
As usually defined, the inhibition is the drop in the measured response relative to a control, in per cent. As for `CC1(C)CCC(CN2CCN(c3ccc(S(=O)(=O)NC(=O)c4ccc(F)c(-c5ccncc5)n4)cc3)CC2)=C(c2ccc(Cl)cc2)C1` [Example 61, N-[4-[4-[[2-(4-chlorophenyl)-4,4-dimethyl-cyclohexen-1-yl]methyl]piperazin-1-yl]phenyl]sulfonyl-5-fluoro-6-(4-pyridyl)pyridine-2-carboxamide], the inhibition at 1 µM is below 50%. `CC1(C)CCC(CN2CCN(c3ccc(S(=O)(=O)NC(=O)c4ccncc4C(F)(F)F)cc3)CC2)=C(c2ccc(Cl)cc2)C1` [Example 22, N-([4-[4-[[2-(4-chlorophenyl)-4,4-dimethylcyclohexen-1-yl]methyl]piperazin-1-yl]phenyl]sulfonyl)-3-(trifluoromethyl)pyridine-4-carboxamide]: the inhibition at 1 µM was 50 to 90%. Same read-out and setting: as for `COCc1ccc(C(=O)NS(=O)(=O)c2ccc(N3CCN(CC4=C(c5ccc(Cl)cc5)CC(C)(C)CC4)CC3)cc2)cc1` [Example 19, N-([4-[4-[[2-(4-chlorophenyl)-4,4-dimethylcyclohexen-1-yl]methyl]piperazin-1-yl]phenyl]sulfonyl)-4-(methoxymethyl)benzamide], the figure is 50 to 90%. On to `CNc1c([N+](=O)[O-])cc(C(=O)NS(=O)(=O)c2ccc(N3CCN(CC4=C(c5ccc(Cl)cc5)CC(C)(C)CC4)CC3)cc2)c(Cl)c1C` [Example 54, 2-chloro-N-[4-[4-[[2-(4-chlorophenyl)-4,4-dimethylcyclohexen-1-yl]methyl]piperazin-1-yl]phenyl]sulfonyl-4-(methylamino)-3-methyl-5-nitrobenzamide], for which the inhibition at 1 µM lay in the range of 50 to 90%. In the case of `Cc1cc(C(=O)NS(=O)(=O)c2ccc(N3CCN(CC4=C(c5ccc(Cl)cc5)CC(C)(C)CC4)CC3)cc2)[nH]n1` [Example 14, N-([4-[4-[[2-(4-chlorophenyl)-4,4-dimethylcyclohexen-1-yl]methyl]piperazin-1-yl]phenyl]sulfonyl)-3-methyl-1H-pyrazole-5-carboxamide], the inhibition at 1 µM was in the range of 50 to 90%.

In the case of `CC1(C)CCC(CN2CCN(c3ccc(S(=O)(=O)NC(=O)c4ccc(F)c(-c5ccc6[nH]ncc6c5)n4)cc3)CC2)=C(c2ccc(Cl)cc2)C1` [Example 48, N-[4-[4-[[2-(4-chlorophenyl)-4,4-dimethylcyclohexen-1-yl]methyl]piperazin-1-yl]phenyl]sulfonyl-5-fluoro-6-(1H-indazol-5-yl)pyridine-2-carboxamide], the inhibition at 1 µM lay in the range of 50 to 90%. For `CC1(C)CCC(CN2CCN(c3ccc(S(=O)(=O)NC(=O)c4ccc(F)c(Cl)n4)cc3)CC2)=C(c2ccc(Cl)cc2)C1` [Example 1, 6-Chloro-N-[4-[4-[[2-(4-chlorophenyl)-4,4-dimethylcyclohexen-1-yl]methyl]piperazin-1-yl]phenyl]sulfonyl-5-fluoropyridine-2-carboxamide], the inhibition at 1 µM is 50 to 90%.

The same test, now with this note: 10-concentration IC50 mode, 4 nM BCL-2 recombinant protein, 100 nM FAM-Bak, read-out: potency (IC50).
The term IC50 denotes the concentration at which inhibition is half-maximal. Turning to `CC1(C)CCC(CN2CCN(c3ccc(S(=O)(=O)NC(=O)c4ccnc5sccc45)c(Oc4cnc5[nH]ccc5c4)c3)CC2)=C(c2ccc(Cl)cc2)C1` [Example 93, N-[4-[4-[[2-(4-chlorophenyl)-4,4-dimethylcyclohexen-1-yl]methyl]piperazin-1-yl]-2-(1H-pyrrolo[2,3-b]pyridin-5-yloxy)phenyl]sulfonylthieno[2,3-b]pyridine-4-carboxamide], the IC50 was in the range of 10 to 100 nM. Same read-out and setting: as for `CC1(C)CCC(CN2CCN(c3ccc(S(=O)(=O)NC(=O)c4cnc5sccc5c4)c(Oc4cnc5[nH]ccc5c4)c3)CC2)=C(c2ccc(Cl)cc2)C1` [Example 75, N-((2-((1H-pyrrolo[2,3-b]pyridin-5-yl)oxy)-4-(4-[[2-(4-Chlorophenyl)-4,4-dimethylcyclohexen-1-yl]methyl]piperazin-1-yl]phenyl)sulfonyl)thieno[2,3-b]pyridine-5-carboxamide], the figure is 100 to 1000 nM.
